Test systems include KM12 colon; RXF 393 renal; NCI-H23 lung; SF-295 CNS; SK-MEL-2 melanoma; SF-539 CNS; OVCAR-5 ovarian; EKVX NSCLC; SK-MEL-5 melanoma; UACC-62 melanoma.
Common to all, as to experiment: DTP human tumour cell line panel, 48 h

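Protocol summary: plate cells (96-well), add compound at 5 concentrations, incubate 48 h, interpolate endpoints linearly. GI50 = concentration required for 50% inhibition of growth. At the TGI there is no net growth.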 Where only a bound is given, the exact number is not on record here.

Turning to `Oc1c(Br)cc2c(c1Br)-c1c(c(O)c3c4c1=NCCC=4C=N3)NCC2`, the TGI (commonly the concentration giving total growth inhibition) in the assay with KM12 colon worked out at 27.2 µM; in the assay on RXF 393 renal, 28.7 µM; with NCI-H23 lung it was 30.3 µM; with SF-295 CNS, 19.5 µM; with SK-MEL-2 melanoma, 26.4 µM; in the assay on SF-539 CNS it was 26.5 µM. Further, the concentration for total growth inhibition (TGI) in the assay on OVCAR-5 ovarian is 40.2 µM; with EKVX NSCLC, 46.1 µM; in the assay with SK-MEL-5 melanoma, 23.2 µM; in the assay with UACC-62 melanoma it was 11.4 µM.
For `N#C[S-].[La+3].c1ccc(-c2ccccn2)nc1.c1ccc(-c2ccccn2)nc1.c1ccc(-c2ccccn2)nc1`, the GI50 (in general, the concentration that inhibits growth by half) in the assay on KM12 colon is 51 µM; in the assay on RXF 393 renal, 22.5 µM; in the assay on NCI-H23 lung, 29.1 µM; in the assay on SF-295 CNS, 12.3 µM; in the assay with SK-MEL-2 melanoma it was 21.5 µM; in the assay with SF-539 CNS, 33.2 µM. The GI50 with OVCAR-5 ovarian was 15 µM; in the assay with EKVX NSCLC it was 22 µM; with SK-MEL-5 melanoma, 10.4 µM; in the assay on UACC-62 melanoma it was 19.5 µM. In addition, the TGI in the assay with KM12 colon was > 100 µM; with RXF 393 renal it was 84.7 µM; in the assay on NCI-H23 lung, > 100 µM; in the assay on SF-295 CNS it was 71.3 µM; in the assay with SK-MEL-2 melanoma, 53.6 µM; in the assay with SF-539 CNS it was > 100 µM. Besides, the concentration for total growth inhibition (TGI) is 55.1 µM in the assay with OVCAR-5 ovarian, > 100 µM with EKVX NSCLC, 34.8 µM in the assay with SK-MEL-5 melanoma and 50.3 µM with UACC-62 melanoma.
As to `Brc1ccc2[nH]c3c(C4=NCCC4)nccc3c2c1`, the total growth inhibition concentration (TGI) in the assay on KM12 colon is > 100 µM; with RXF 393 renal, 71.2 µM; with NCI-H23 lung, > 79.7 µM; in the assay with SF-295 CNS it was > 36.7 µM; in the assay on SK-MEL-2 melanoma it was > 53.3 µM; with SF-539 CNS, > 25.4 µM. For the same molecule, the TGI in the assay on OVCAR-5 ovarian is > 29.7 µM; in the assay with EKVX NSCLC, 57.3 µM; with SK-MEL-5 melanoma it was > 34.2 µM; with UACC-62 melanoma, 30.5 µM.
For `Clc1cc(N/N=C(\c2ccccc2)c2ccccn2)ncn1`, the TGI with KM12 colon was > 100 µM; in the assay on RXF 393 renal it was > 100 µM; in the assay on NCI-H23 lung, > 100 µM; in the assay on SF-295 CNS, > 100 µM; with SK-MEL-2 melanoma, > 100 µM; in the assay on SF-539 CNS, 3.26 µM. Moreover, the TGI in the assay on OVCAR-5 ovarian is > 100 µM; in the assay with EKVX NSCLC, > 100 µM; in the assay with SK-MEL-5 melanoma it was 4.2 µM; in the assay with UACC-62 melanoma, 2.7 µM.
For the molecule `Cc1c2cc[n+](Cc3ccc(I)cc3)cc2c(C)c2c1[nH]c1ccccc12`, the total growth inhibition concentration (TGI) in the assay with KM12 colon was 1.83 µM; with RXF 393 renal, > 25 µM; in the assay with NCI-H23 lung, 9.13 µM; in the assay with SF-295 CNS, > 9.98 µM; in the assay on SK-MEL-2 melanoma, 1.64 µM; in the assay on SF-539 CNS it was > 15.8 µM. Besides, the concentration for total growth inhibition (TGI) in the assay on OVCAR-5 ovarian came out at 11.3 µM; with EKVX NSCLC, 7.85 µM; with SK-MEL-5 melanoma it was 1.33 µM; with UACC-62 melanoma, 16.6 µM.
For the molecule `O=c1cc(-c2cccc(OC(F)(F)F)c2)[nH]c2ccc(N3CCCC3)cc12`, the concentration for total growth inhibition (TGI) amounted to 0.00249 µM with KM12 colon; 0.738 µM in the assay with RXF 393 renal; 0.0502 µM in the assay on NCI-H23 lung; 0.00048 µM in the assay with SF-295 CNS; 0.000848 µM with SK-MEL-2 melanoma; 0.000621 µM with SF-539 CNS. Also, the TGI with OVCAR-5 ovarian was > 100 µM; with EKVX NSCLC, > 100 µM; in the assay on SK-MEL-5 melanoma, 0.0105 µM; with UACC-62 melanoma it was 96.8 µM. Moreover, the GI50 in the assay with EKVX NSCLC was 0.0493 µM.

For the origin of these results see PubChem BioAssay (NCI).
